From patent publication US6841661B2, “Glycopeptide antibacterial compounds, compositions containing same and methods of using same” (Princeton Univerisity, priority 1999, dated 2005)

Experiments:
[1] = test system: CL 4931, CL 5053, CL 5242 and CL 4877; format: cell-based, E. faecium, E. faecalis; parameters: unit not given here; settings: mean of CL4931, CL5053, CL5242, CL4877; unit not given
Text: (§1) National Committee for Clinical Laboratory Standards (NCCLS) guidelines [Methods for Dilution Antimicrobial Susceptibility Tests for Bacteria that Grow Aerobically-Fourth Edition; Approved Standard (NCCLS Document M7-A4, January 1997)] are used to establish the assay, although variations are made to optimize the published method according to the specific needs of the present investigation.
(§2) The test panel currently includes eight enterococci and 13 staphylococci, which are selected based upon their antibiotic susceptibility profiles. The methicillin-sensitive Staphylococcus aureus (MSSA) strain MB2985 (Smith isolate) is used to assesses the potential for serum protein binding of the compounds. The paired Gram-negative strains ASP #49 (envA-) and ASP #50 (envA+) (M. Salvatore/N. Lee) are included to judge membrane effects. Table 3 presents a detailed description of the strains included in the panel, including some of the sources of the strains of bacteria.
(§3) The glycopeptide antibiotic teicoplanin is included whenever possible.
(§4) TSB, containing 10% HS* for vancomycin intermediate S. aurcus/methicillin-resistant S. aureus (VISA/MRSA) strains, is inoculated from an appropriate source (frozen broth or agar slant) and grown approximately 17 hr at 35° C. with shaking at 220 rpm. Cultures are grown in tubes with a volume of 5 ml for enterococci and 2 ml for all other strains.
(§5) Four milliliter (4 ml) overnight culture is added to 36 ml physiological saline to obtain tenfold dilutions (enterococci). Overnight culture (0.4 ml) is added to 39.6 ml saline to obtain 100-fold dilutions (all strains except enterococci). Diluted cultures are maintained on ice until time of inoculation of test plates.
(§6) The number of CFU/mL is determined on BHI agar plates, although this is not done routinely because titers of overnight cultures are relatively constant. The test media include: • BHI for enterococci and VISA/MRSA; • MH II (i.e., cation-adjusted Mueller-Hinton broth) for MRS, MSS and E. coli.; • MH II+HSA for MSSA is prepared as follows: • a. 2×MHII+86mg/ml HSA • b. Dissolve 4.3 g HSA in 50 ml autoclaved 2x MH II. • c. pH to 7.0 by adding 2M MOPS, sodium. • d. Filter sterilize using 0.22 μm Coming cellulose acetate filter, used because of reported low protein binding. • e. 1×MH II+43 mg/ml HSA • f. Dilute the 2×medium twofold and filter as above. 5.8.6. Preparation of Test Plates
(§7) Using a Denley liquid handling system (or similar automatic device), 100 μ1×medium is added to each well in columns 2-12 of a 96-well microtiter dish. Using a multichannel pipettor, 100 μl 2×medium is added to each well in column 1. Plates may be filled on the day prior to assay, wrapped in plastic bags and refrigerated.
(§8) Vancomycin, Schering 29482, and teicoplanin are prepared on a weight per volume basis using 10 mM 3-(N-morpholino)propane-sulfonic acid (MOPS) buffer pH 7. Test compounds are received in solution in appropriate solvent (typically as 1 mg/ml in DMSO) or are dissolved in appropriate solvent prior to further dilution in 10 mM MOPS buffer, ph7. Consistent with NCCLS guidelines, antibiotics are handled aseptically but are not otherwise sterilized.
(§9) 100 μl appropriately diluted antibiotic solution is added to the first well of the designated row of the 96-well microtiter dish and serially diluted by twofold across the row using the Denley liquid handling system. With the aid of a Dynatech NEC 2000 inoculator, each well of the microtiter dish is inoculated with 1.5 μl diluted overnight culture, yielding approximately 1-5×10^6 CFU/ml for enterococci and approximately 3-7×10^5 CFU/ml for all other strains. Dishes are placed in stacks of no more than five, wrapped in plastic bags and incubated at 35° C. • Indication of result(s) type (% INH, IC50, Zone size, etc.) • MIC=minimum inhibitory concentration ps 5.8.9. Interpretation of the Results on the Basis of Activity […]

[2] = test system: E. faecalis CL 4877 (VanB); assay: microbe, parasite or virus in culture; format: cell-based; parameters: CL4877 (in vitro testing): unit not given here; settings: Tables 7 and 8; unit not given
Text: as §1, §2, §3, §4, §5, §6, §7, §8, §9

[3] = test system: E. faecium CL 5053 (VanA); assay: microbe, parasite or virus in culture; format: cell-based; parameters: CL5053 (in vitro testing): unit not given here; settings: Tables 7 and 8; unit not given
Text: as §1, §2, §3, §4, §5, §6, §7, §8, §9

[4] = test system: E. faecium CL 5242 (VanA); assay: microbe, parasite or virus in culture; format: cell-based; parameters: CL5242 (in vitro testing): unit not given here; settings: Tables 7 and 8; unit not given
Text: as §1, §2, §3, §4, §5, §6, §7, §8, §9

[5] = test system: E. faecium CL 4931 (VanA); assay: microbe, parasite or virus in culture; format: cell-based; parameters: CL4931 (in vitro testing): unit not given here; settings: Tables 7 and 8; unit not given
Text: as §1, §2, §3, §4, §5, §6, §7, §8, §9

| SMILES | Mean [1] | CL4877 (in vitro testing) [2] | CL5053 (in vitro testing) [3] | CL5242 (in vitro testing) [4] | CL4931 (in vitro testing) [5] |
| --- | --- | --- | --- | --- | --- |
| CNC(CC(C)C)C(=O)NC1C(=O)NC(CC(N)=O)C(=O)NC2C(=O)NC3C(=O)NC(C(=O)NC(C(=O)O)c4cc(O)cc(O)c4-c4cc3ccc4O)C(O)c3ccc(c(Cl)c3)Oc3cc2cc(c3OC2OC(CNCCCN)C(O)C(O)C2OC2CC(C)(NCc3ccc(OCc4ccc(Cl)c(Cl)c4)cc3)C(O)C(C)O2)Oc2ccc(cc2Cl)C1O (centres unmarked) [Compound 161] | 13.0 | 16 | 16 | 4 | 16 |
| CNC(CC(C)C)C(=O)NC1C(=O)NC(CC(N)=O)C(=O)NC2C(=O)NC3C(=O)NC(C(=O)NC(C(=O)O)c4cc(O)cc(O)c4-c4cc3ccc4O)C(O)c3ccc(c(Cl)c3)Oc3cc2cc(c3OC2OC(CN3CCCC3)C(O)C(O)C2OC2CC(C)(NCc3ccc(OCc4ccc(Cl)c(Cl)c4)cc3)C(O)C(C)O2)Oc2ccc(cc2Cl)C1O (centres unmarked) [Compound 163] | 13.5 | 2 | 32 | 4 | 16 |
| CNC(CC(C)C)C(=O)NC1C(=O)NC(CC(N)=O)C(=O)NC2C(=O)NC3C(=O)NC(C(=O)NC(C(=O)O)c4cc(O)cc(O)c4-c4cc3ccc4O)C(O)c3ccc(c(Cl)c3)Oc3cc2cc(c3OC2OC(CNC3CC3)C(O)C(O)C2OC2CC(C)(NCc3ccc(OCc4ccc(Cl)c(Cl)c4)cc3)C(O)C(C)O2)Oc2ccc(cc2Cl)C1O (centres unmarked) [Compound 165] | 14.0 | 16 | 16 | 8 | 16 |
| CNC(CC(C)C)C(=O)NC1C(=O)NC(CC(N)=O)C(=O)NC2C(=O)NC3C(=O)NC(C(=O)NC(C(=O)O)c4cc(O)cc(O)c4-c4cc3ccc4O)C(O)c3ccc(c(Cl)c3)Oc3cc2cc(c3OC2OC(CN3CCC(N(C)C)C3)C(O)C(O)C2OC2CC(C)(NCc3ccc(OCc4ccc(Cl)c(Cl)c4)cc3)C(O)C(C)O2)Oc2ccc(cc2Cl)C1O (centres unmarked) [Compound 166] | 14.5 | 32 | 16 | 2 | 8 |
| CNC(CC(C)C)C(=O)NC1C(=O)NC(CC(N)=O)C(=O)NC2C(=O)NC3C(=O)NC(C(=O)NC(C(=O)O)c4cc(O)cc(O)c4-c4cc3ccc4O)C(O)c3ccc(c(Cl)c3)Oc3cc2cc(c3OC2OC(CN3CCNCC3)C(O)C(O)C2OC2CC(C)(NCc3ccc(OCc4ccc(Cl)c(Cl)c4)cc3)C(O)C(C)O2)Oc2ccc(cc2Cl)C1O (centres unmarked) [Compound 167] | 15.0 | 32 | 16 | 4 | 8 |
| CNC(CC(C)C)C(=O)NC1C(=O)NC(CC(N)=O)C(=O)NC2C(=O)NC3C(=O)NC(C(=O)NC(C(=O)O)c4cc(O)cc(O)c4-c4cc3ccc4O)C(O)c3ccc(c(Cl)c3)Oc3cc2cc(c3OC2OC(CN3CCCCC3)C(O)C(O)C2OC2CC(C)(NCc3ccc(OCc4ccc(Cl)c(Cl)c4)cc3)C(O)C(C)O2)Oc2ccc(cc2Cl)C1O (centres unmarked) [Compound 168] | 18.3 | 1 | 16 | 8 | 32 |
| CNC(CC(C)C)C(=O)NC1C(=O)NC(CC(N)=O)C(=O)NC2C(=O)NC3C(=O)NC(C(=O)NC(C(=O)O)c4cc(O)cc(O)c4-c4cc3ccc4O)C(O)c3ccc(c(Cl)c3)Oc3cc2cc(c3OC2OC(CN3CCOCC3)C(O)C(O)C2OC2CC(C)(NCc3ccc(OCc4ccc(Cl)c(Cl)c4)cc3)C(O)C(C)O2)Oc2ccc(cc2Cl)C1O (centres unmarked) [Compound 169] | 18.3 | 1 | 32 | 8 | 32 |
| CNC(CC(C)C)C(=O)NC1C(=O)NC(CC(N)=O)C(=O)NC2C(=O)NC3C(=O)NC(C(=O)NC(C(=O)O)c4cc(O)cc(O)c4-c4cc3ccc4O)C(O)c3ccc(c(Cl)c3)Oc3cc2cc(c3OC2OC(CN3CCC(N(C)C)CC3)C(O)C(O)C2OC2CC(C)(NCc3ccc(OCc4ccc(Cl)c(Cl)c4)cc3)C(O)C(C)O2)Oc2ccc(cc2Cl)C1O (centres unmarked) [Compound 170] | 22.0 | 32 | 32 | 8 | 16 |
| CNC(CC(C)C)C(=O)NC1C(=O)NC(CC(N)=O)C(=O)NC2C(=O)NC3C(=O)NC(C(=O)NC(C(=O)O)c4cc(O)cc(O)c4-c4cc3ccc4O)C(O)c3ccc(c(Cl)c3)Oc3cc2cc(c3OC2OC(CN)C(O)C(O)C2OC2CC(C)(NCc3ccc(OCc4ccc(Cl)cc4)cc3)C(O)C(C)O2)Oc2ccc(cc2Cl)C1O (centres unmarked) [Compound 171] | 7.25 | 16 | 8 | 1 | 4 |
| CNC(CC(C)C)C(=O)NC1C(=O)NC(CC(N)=O)C(=O)NC2C(=O)NC3C(=O)NC(C(=O)NC(C(=O)O)c4cc(O)cc(O)c4-c4cc3ccc4O)C(O)c3ccc(c(Cl)c3)Oc3cc2cc(c3OC2OC(CN)C(O)C(O)C2OC2CC(C)(NCc3ccc(OCc4cccc(Cl)c4)cc3)C(O)C(C)O2)Oc2ccc(cc2Cl)C1O (centres unmarked) [Compound 172] | 12.5 | >16 | 16 | 2 | 16 |
| CNC(CC(C)C)C(=O)NC1C(=O)NC(CC(N)=O)C(=O)NC2C(=O)NC3C(=O)NC(C(=O)NC(C(=O)O)c4cc(O)cc(O)c4-c4cc3ccc4O)C(O)c3ccc(c(Cl)c3)Oc3cc2cc(c3OC2OC(CN)C(O)C(O)C2OC2CC(C)(NCc3ccc(OCc4ccc(Cl)cc4Cl)cc3)C(O)C(C)O2)Oc2ccc(cc2Cl)C1O (centres unmarked) [Compound 173] | 4.75 | 2 | 8 | 1 | 8 |
| CNC(CC(C)C)C(=O)NC1C(=O)NC(CC(N)=O)C(=O)NC2C(=O)NC3C(=O)NC(C(=O)NC(C(=O)O)c4cc(O)cc(O)c4-c4cc3ccc4O)C(O)c3ccc(c(Cl)c3)Oc3cc2cc(c3OC2OC(CN)C(O)C(O)C2OC2CC(C)(NCc3ccc(OCc4cc(Cl)ccc4Cl)cc3)C(O)C(C)O2)Oc2ccc(cc2Cl)C1O (centres unmarked) [Compound 174] | 14 | 16 | 16 | 8 | 16 |
| CNC(CC(C)C)C(=O)NC1C(=O)NC(CC(N)=O)C(=O)NC2C(=O)NC3C(=O)NC(C(=O)NC(C(=O)O)c4cc(O)cc(O)c4-c4cc3ccc4O)C(O)c3ccc(c(Cl)c3)Oc3cc2cc(c3OC2OC(CN)C(O)C(O)C2OC2CC(C)(NCc3ccc(OCc4cc(Cl)cc(Cl)c4)cc3)C(O)C(C)O2)Oc2ccc(cc2Cl)C1O (centres unmarked) [Compound 175] | 3 | 2 | 4 | 2 | 4 |
